In patent publication US8299271B2, “Solid tartrate salts of DPP-IV inhibitors” (priority 2006, dated 2012):
Where a name gives a salt, the structure may show the parent alone.

Experiments:
[1] = Salt preparation: isolation of solid salts of the pyrrolidine compound; format: physicochemical; details: acid plus free base in IPA, filtration, MTBE
[2] = Chemical stability by HPLC; format: physicochemical; details: 45% RH for two months
[3] = Chemical stability by HPLC; format: physicochemical
Procedure: In addition, the solutions before spraying and the spray dried product were analyzed for purity by HPLC using the following method. A Waters Symmetry C18 (3.0×150 mm, 3.5 um) column was used. […] Column temperature was 60° C., and the detection wavelength was 210 nm. The injection volume was 15 μL; flow rate was 1.0 mL/minute for a run time of 70 minutes. The gradient was as follows: Chemical Stability. Chemical stability was determined using HPLC. […] The chemical stability of the tartrate salt and the free base was also determined after one and three months at 25° C., 40° C. and 60° C.

[4] = Physical stability in humidity chambers
From the text: Physical Stability in Humidity Chambers. […] Samples were weighed hourly at first, and then on daily intervals.

[5] = 12 Month Stability Study; format: physicochemical; parameters: Water: unit not given beside the values; details: for decomposition on storage: 25° C.
[6] = 3 months at 40° C., listed as Tartrate
[7] = 12 months, T = 25° C., RH = 60%

O=C(O)[C@@H](O)[C@H](O)C(=O)O [D-tartrate]
Comments (outcome of salt preparation) ([1]; listed as D-Tartaric Acid): Good filterable solid

O=C(CN[C@@H]1CCNC1)N1CCC[C@H]1B(O)O [L-tartrate salt, (2R)-1-{7-[(9R)-pyrrolidin-9-ylamino]-acetyl}-pyrrolidine-2-boronic acid]
change in the purity (HPLC) [2]: Little or no change | Assay (%) ([3]; 1 month at 60° C.): 100% | Total Impurities (%) ([3]; 1 month at 60° C.): 5.8% | Assay (%) ([3]; 3 months at 25° C.): 99% | Total Impurities (%) ([3]; 3 months at 25° C.): 5.7% | Assay (%) [3, 6]: 97% | Total Impurities (%) [3, 6]: 5.9% | Assay (%) ([3]; 3 months at 60° C.): 92% | Total Impurities (%) ([3]; 3 months at 60° C.): 7.4% | Assay (%) ([3]; Initial, listed as Tartrate): 99% | Total Impurities (%) ([3]; Initial, listed as Tartrate): 6.5% | hygroscopicity [4]: moderately hygroscopic | processability of the solid ([4]; 63% relative humidity and room temperature for two months): remained a processable solid | physical behaviour of the solid at ambient conditions ([4]; ambient conditions): remains a processable solid | flow properties ([4]; open container, room temperature, 45% RH, two months): maintained good flow properties | processability of the solid ([4]; several days at ambient temperature, relative humidity of 75%): remained a processable solid | Assay (HPLC) ([5]; 1 month, T = 5° C., RH = N/A): 105.7 | Purity (HPLC) ([5]; 1 month, T = 5° C., RH = N/A): 98.1 | Water ([5]; 1 month, T = 5° C., RH = N/A): 9.8 | Assay (HPLC) ([5]; 1 month, T = 25° C., RH = 60%): 105.7 | Purity (HPLC) ([5]; 1 month, T = 25° C., RH = 60%): 98.1 | Water ([5]; 1 month, T = 25° C., RH = 60%): 9.9 | Assay (HPLC) ([5]; 1 month, T = 40° C., RH = 75%): 106.0 | Purity (HPLC) ([5]; 1 month, T = 40° C., RH = 75%): 98.2 | Water ([5]; 1 month, T = 40° C., RH = 75%): 10.0 | Assay (HPLC) ([5]; 3 months, T = 5° C., RH = N/A): 106.2 | Purity (HPLC) ([5]; 3 months, T = 5° C., RH = N/A): 98.0 | Water ([5]; 3 months, T = 5° C., RH = N/A): 9.6 | Assay (HPLC) ([5]; 3 months, T = 25° C., RH = 60%): 106.7 | Purity (HPLC) ([5]; 3 months, T = 25° C., RH = 60%): 98.1 | Water ([5]; 3 months, T = 25° C., RH = 60%): 9.4 | Assay (HPLC) ([5]; 3 months, T = 40° C., RH = 75%): 105.3 | Purity (HPLC) ([5]; 3 months, T = 40° C., RH = 75%): 97.9 | Water ([5]; 3 months, T = 40° C., RH = 75%): 9.2 | decomposition on storage ([5]; 6 months at 75% RH): no detectable decomposition | Assay (HPLC) ([5]; 6 months, T = 5° C., RH = N/A): 104.6 | Purity (HPLC) ([5]; 6 months, T = 5° C., RH = N/A): 97.9 | Water ([5]; 6 months, T = 5° C., RH = N/A): 8.9 | Assay (HPLC) ([5]; 6 months, T = 25° C., RH = 60%): 105.9 | Purity (HPLC) ([5]; 6 months, T = 25° C., RH = 60%): 97.9 | Water ([5]; 6 months, T = 25° C., RH = 60%): 9.3 | Assay (HPLC) ([5]; 6 months, T = 40° C., RH = 75%): 105.6 | Purity (HPLC) ([5]; 6 months, T = 40° C., RH = 75%): 97.7 | Water ([5]; 6 months, T = 40° C., RH = 75%): 9.5 | Assay (HPLC) ([5]; 9 months, T = 5° C., RH = N/A): 106.7 | Purity (HPLC) ([5]; 9 months, T = 5° C., RH = N/A): 97.8 | Water ([5]; 9 months, T = 5° C., RH = N/A): 9.1 | Assay (HPLC) ([5]; 9 months, T = 25° C., RH = 60%): 107.3 | Purity (HPLC) ([5]; 9 months, T = 25° C., RH = 60%): 97.8 | Water ([5]; 9 months, T = 25° C., RH = 60%): 9.0 | decomposition on storage ([5]; 12 months at 60% RH): no detectable decomposition | Assay (HPLC) ([5]; 12 months, T = 5° C., RH = N/A): 107.8 | Purity (HPLC) ([5]; 12 months, T = 5° C., RH = N/A): 98.0 | Water ([5]; 12 months, T = 5° C., RH = N/A): 9.3 | Assay (HPLC) [5, 7]: 107.7 | Purity (HPLC) [5, 7]: 97.9 | Water [5, 7]: 9.3 | change in chemical purity ([5]; any of the conditions tested, 12 month study): substantially no change | Assay (HPLC) ([5]; time = 0): 105.1 | Purity (HPLC) ([5]; time = 0): 98.3 | Water ([5]; time = 0): 10.4 | solubility in water and alcohols: > 2000 mg/mL

citrate
stability at 63% RH ([4]; 63% RH): stable | stability when submitted to 75% relative humidity ([4]; 75% RH): not stable | Comments (outcome of salt preparation) [1]: Good filterable solid

O=C(CN[C@@H]1CCNC1)N1CCC[C@H]1B(O)O [Free Base, (2R)-1-{7-[(9R)-pyrrolidin-9-ylamino]-acetyl}-pyrrolidine-2-boronic acid]
Assay (%) ([3]; 1 month at 40° C.): 97% | Total Impurities (%) ([3]; 1 month at 40° C.): 15.4% | Assay (%) ([3]; 3 months at 40° C.): 50% | Total Impurities (%) ([3]; 3 months at 40° C.): 29.6% | Assay (%) ([3]; Initial): 96% | Total Impurities (%) ([3]; Initial): 7.6%
